Reference: ChEMBL document CHEMBL1137266, “4-Aminoquinoline melanin-concentrating hormone 1-receptor (MCH1R) antagonists” (Bioorg Med Chem Lett, 2006)

Tests used:
[1] = molecular target: T1, Melanin-concentrating hormone receptor 1 (Homo sapiens, UniProt Q99705); test: Displacement of 125I-[Phe13,Tyr19]-MCH from human MCH-R1
[2] = molecular target: T1, Melanin-concentrating hormone receptor 1; test: Stimulation of IP3-coupled mobilization of calcium in HEK293 cells expressing MCH-R1; format: functional, cell-based
[3] = molecular target: T2, Melanin-concentrating hormone receptor 2 (Homo sapiens, UniProt Q969V1); test: Inhibition of 125I-[Phe13,Tyr19]-MCH binding to human MCH-R2 at 2uM
T2 sequence (Q969V1 whole entry): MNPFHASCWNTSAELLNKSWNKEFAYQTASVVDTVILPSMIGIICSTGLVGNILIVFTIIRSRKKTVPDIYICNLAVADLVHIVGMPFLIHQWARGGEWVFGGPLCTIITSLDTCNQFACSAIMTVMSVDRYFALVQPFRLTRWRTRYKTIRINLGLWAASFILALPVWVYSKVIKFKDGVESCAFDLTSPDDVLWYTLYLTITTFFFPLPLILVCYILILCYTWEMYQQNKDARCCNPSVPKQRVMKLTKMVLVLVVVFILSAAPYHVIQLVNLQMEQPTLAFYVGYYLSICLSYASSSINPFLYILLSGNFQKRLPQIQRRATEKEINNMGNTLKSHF

[4] = molecular target: T2, Melanin-concentrating hormone receptor 2; test: Displacement of 125I-[Phe13,Tyr19]-MCH from human MCH-R2
[5] = molecular target: T1, Melanin-concentrating hormone receptor 1; test: Inhibition of 125I-[Phe13,Tyr19]-MCH binding to human MCH-R1; conditions: concentration not given here

T1 sequence (Q99705 whole entry): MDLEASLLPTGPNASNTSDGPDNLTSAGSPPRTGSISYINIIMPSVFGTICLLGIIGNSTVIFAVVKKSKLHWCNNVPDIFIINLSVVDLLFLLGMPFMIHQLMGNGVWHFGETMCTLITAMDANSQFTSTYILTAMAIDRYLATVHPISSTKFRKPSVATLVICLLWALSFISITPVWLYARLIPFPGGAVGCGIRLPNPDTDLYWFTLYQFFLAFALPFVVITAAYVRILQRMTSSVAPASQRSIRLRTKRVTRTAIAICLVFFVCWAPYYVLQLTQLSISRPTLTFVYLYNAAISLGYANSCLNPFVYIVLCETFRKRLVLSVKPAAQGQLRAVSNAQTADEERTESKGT

Row | SMILES | IC50 [1] [nM] | EC50 [2] [nM] | inhibition [3] [%] | IC50 [4] [nM] | inhibition [5] [%]
1 | Nc1cc(-c2ccccc2)nc2ccc(NC(=O)/C=C/c3ccc(Cl)cc3)cc12 | 18.5 | 6600 | < 50 | – | –
2 | CCCc1cc(NC2CC2)c2cc(NC(=O)/C=C/c3ccc(C(F)(F)F)cc3)ccc2n1 | 40 | – | < 50 | – | –
3 | CCCc1cc(N)c2cc(NC(=O)CCc3ccccc3)ccc2n1 | 8300 | – | < 50 | – | –
4 | CCCc1cc(N)c2cc(N(C)C(=O)CCc3ccc(C(F)(F)F)cc3)ccc2n1 | 1700 | – | < 50 | – | –
5 | CCCc1cc(N)c2cc(NC(=O)/C=C/c3ccc(C(F)(F)F)cc3)ccc2n1 (stereo in doubt; form 1) [listing 1 of 2 here] | – | – | < 50 | – | –
6 | CCCc1cc(N)c2cc(NC(=O)/C=C/c3ccc(N)cc3)ccc2n1 | 190 | – | < 50 | – | –
7 | CCCc1cc(N)c2cc(NC(=O)/C=C/c3ccc(O)cc3)ccc2n1 | 1100 | – | < 50 | – | –
8 | CCCc1cc(N)c2cc(NC(=O)/C=C/c3ccc(Cl)c(Cl)c3)ccc2n1 | 60 | 990 | < 50 | – | –
9 | CCCc1cc(N)c2cc(NCCCc3ccc(C(F)(F)F)cc3)ccc2n1 | 180 | 1000 | < 50 | – | –
10 | CCCc1cc(N2CCCCC2)c2cc(NC(=O)/C=C/c3ccc(C(F)(F)F)cc3)ccc2n1 | > 4000 | – | < 50 | – | –
11 | CCCc1cc(N)c2cc(NC(=O)/C=C/c3ccccc3)ccc2n1 | 1000 | – | < 50 | – | –
12 | CCCc1cc(N)c2cc(NC(=O)/C=C/c3ccc(Cl)cc3)ccc2n1 | 6 | 96 | < 50 | – | –
13 | CCCc1cc(N)c2cc(NC(=O)/C=C/c3ccc(C(F)(F)F)cc3)ccc2n1 (stereo in doubt; form 3) [listing 1 of 2 here] | – | – | < 50 | – | –
14 | CCCc1cc(N)c2cc(NC(=O)/C=C/c3ccc(SC)cc3)ccc2n1 | 9 | 71 | < 50 | – | –
15 | CCCc1cc(N)c2cc(NC(=O)/C=C/c3ccccc3Cl)ccc2n1 | 120 | 500 | < 50 | – | –
16 | CCCc1cc(NC2CCC2)c2cc(NC(=O)/C=C/c3ccc(C(F)(F)F)cc3)ccc2n1 | 18 | 270 | – | 960 | –
17 | CC(C)(C)Cc1cc(N)c2cc(NC(=O)/C=C/c3ccc(C(F)(F)F)cc3)ccc2n1 | 5.8 | 110 | < 50 | – | –
18 | CCCc1cc(N)c2cc(NC(=O)NCc3ccc(C(F)(F)F)cc3)ccc2n1 | 38 | 380 | < 50 | – | –
19 | CCCc1cc(N)c2cc(NC(=O)/C=C/c3ccc(C(C)(C)C)cc3)ccc2n1 | 22 | 910 | < 50 | – | –
20 | CCCc1cc(N)c2cc(NC(=O)/C=C/c3cccc(Cl)c3)ccc2n1 | 1100 | – | < 50 | – | –

Row | SMILES | IC50 [1] [nM] | EC50 [2] [nM] | inhibition [3] [%] | IC50 [4] [nM] | inhibition [5] [%]
21 | CCCc1cc(N)c2cc(NC(=O)/C=C/c3ccc(C)cc3)ccc2n1 | 9 | 71 | < 50 | – | –
22 | CCCc1cc(N2CCCC2)c2cc(NC(=O)/C=C/c3ccc(C(F)(F)F)cc3)ccc2n1 | 17 | 2800 | < 50 | – | –
23 | CCCc1cc(OC)c2cc(NC(=O)/C=C/c3ccc(C(F)(F)F)cc3)ccc2n1 | 26 | 360 | < 50 | – | –
24 | CCCc1cc(NCC)c2cc(NC(=O)/C=C/c3ccc(C(F)(F)F)cc3)ccc2n1 | 4.8 | 340 | < 50 | – | –
25 | CCCc1cc(N)c2cc(NC(=O)/C=C/c3ccc(F)cc3)ccc2n1 | 130 | 200 | < 50 | – | –
26 | CCCc1cc(N)c2cc(NC(=O)/C=C/c3ccc(C(F)(F)F)cc3)ccc2n1 (stereo in doubt; form 2) [listing 2 of 2 here] | – | – | < 50 | – | –
27 | Cc1cc(N)c2cc(NC(=O)/C=C/c3ccc(C(F)(F)F)cc3)ccc2n1 | 8 | 140 | < 50 | – | –
28 | CCCc1cc(O)c2cc(NC(=O)/C=C/c3ccc(C(F)(F)F)cc3)ccc2n1 | – | – | < 50 | – | < 50
29 | CCCc1cc(N(C)C)c2cc(NC(=O)/C=C/c3ccc(C(F)(F)F)cc3)ccc2n1 | 43 | 300 | < 50 | – | –
30 | CCCc1cc(N)c2cc(NC(=O)Cc3ccc(C(F)(F)F)cc3)ccc2n1 | 4000 | – | < 50 | – | –
31 | CCCc1cc(N)c2cc(NC(=O)c3ccc(C(F)(F)F)cc3)ccc2n1 | 10000 | – | < 50 | – | –
32 | CCCc1cc(N)c2cc(C(=O)NCCc3ccc(C(F)(F)F)cc3)ccc2n1 | 2700 | – | < 50 | – | –
33 | CCCc1cc(N)c2cc(NC(=O)/C=C/c3ccc(OC(C)=O)cc3)ccc2n1 | 95 | 630 | < 50 | – | –
34 | CCCc1cc(N)c2cc(NC(=O)/C=C/c3ccc([N+](=O)[O-])cc3)ccc2n1 | 20 | 310 | < 50 | – | –
35 | CCCCc1ccc(/C=C/C(=O)Nc2ccc3nc(CCC)cc(N)c3c2)cc1 | 45 | 740 | < 50 | – | –
36 | CCCc1cc(N)c2cc(NC(=O)c3ccccc3)ccc2n1 | – | – | < 50 | – | < 50
37 | CCCc1cc(N(CC)CC)c2cc(NC(=O)/C=C/c3ccc(C(F)(F)F)cc3)ccc2n1 | 1100 | – | < 50 | – | –
38 | CCCc1cc(N)c2cc(NC(=O)CCc3ccc(C(F)(F)F)cc3)ccc2n1 | 13 | 120 | < 50 | – | –
39 | CCCc1cc(N)c2cc(NC(=O)/C=C/c3ccc(Cl)cc3Cl)ccc2n1 | 6.6 | 904 | < 50 | – | –

Further compounds by falling IC50 [1], results first:

Row | IC50 [1] [nM] | EC50 [2] [nM] | inhibition [3] [%] | IC50 [4] [nM] | inhibition [5] [%] | SMILES
40 | 4.5 | 310 | < 50 | – | – | CCCc1cc(N)c2cc(NC(=O)c3ccc(-c4ccc(C(F)(F)F)cc4)cc3)ccc2n1
41 | 4.4 | 370 | < 50 | – | – | CCCc1cc(N)c2cc(NC(=O)C3CCC(c4ccc(Cl)cc4)CC3)ccc2n1 (stereo not drawn)
42 | 4 | 93 | < 50 | – | – | CCCc1cc(N)c2cc(NC(=O)/C=C/c3ccc(Br)cc3)ccc2n1
43 | 4 | 3600 | < 50 | – | – | CCCc1ccc(/C=C/C(=O)Nc2ccc3nc(CCC)cc(N)c3c2)cc1
44 | 2.9 | 520 | < 50 | – | – | CCCc1cc(N)c2cc(NC(=O)/C=C/c3ccc(C(C)C)cc3)ccc2n1
45 | 2.8 | 2500 | < 50 | – | – | CCCc1cc(N2CCC2)c2cc(NC(=O)/C=C/c3ccc(C(F)(F)F)cc3)ccc2n1
46 | 2.3 | 280 | < 50 | – | – | CCCc1cc(N)c2cc(NC(=O)/C=C/c3ccc(I)cc3)ccc2n1
47 | 2.1 | 160 | < 50 | – | – | CC(C)c1cc(N)c2cc(NC(=O)/C=C/c3ccc(C(F)(F)F)cc3)ccc2n1
48 | 2 | 40 | – | – | – | CCCc1cc(N)c2cc(NC(=O)/C=C/c3ccc(C(F)(F)F)cc3)ccc2n1 (stereo in doubt; form 2) [listing 1 of 2 here]
49 | 2 | 250 | < 50 | – | – | Nc1cc(C2CCC2)nc2ccc(NC(=O)/C=C/c3ccc(C(F)(F)F)cc3)cc12
50 | 1.5 | 210 | < 50 | – | – | CCCCc1cc(N)c2cc(NC(=O)/C=C/c3ccc(C(F)(F)F)cc3)ccc2n1
51 | 1.5 | 150 | < 50 | – | – | CCCc1cc(NC)c2cc(NC(=O)/C=C/c3ccc(C(F)(F)F)cc3)ccc2n1
52 | 1.4 | 160 | < 50 | – | – | CCCc1cc(N)c2cc(NC(=O)/C=C/c3ccc(CC)cc3)ccc2n1
53 | 1.3 | 60 | – | – | – | CCCc1cc(N)c2cc(NC(=O)/C=C/c3ccc(C(F)(F)F)cc3)ccc2n1 (stereo in doubt; form 3) [listing 2 of 2 here]
54 | 1.3 | 61 | – | – | – | CCCc1cc(N)c2cc(NC(=O)/C=C/c3ccc(C(F)(F)F)cc3)ccc2n1 (stereo in doubt; form 1) [listing 2 of 2 here]
55 | 1.2 | 110 | < 50 | – | – | CCc1cc(N)c2cc(NC(=O)/C=C/c3ccc(C(F)(F)F)cc3)ccc2n1
56 | 1.2 | 90 | < 50 | – | – | CCCCCc1cc(N)c2cc(NC(=O)/C=C/c3ccc(C(F)(F)F)cc3)ccc2n1
57 | 1.2 | 96 | < 50 | – | – | Nc1cc(C2CCCCC2)nc2ccc(NC(=O)/C=C/c3ccc(C(F)(F)F)cc3)cc12
58 | 1.1 | 118 | < 50 | – | – | CCCc1cc(N)c2cc(NC(=O)/C=C/c3ccc(-c4ccccc4)cc3)ccc2n1
59 | 0.8 | 68 | < 50 | – | – | Nc1cc(C2CCCC2)nc2ccc(NC(=O)/C=C/c3ccc(C(F)(F)F)cc3)cc12
60 | 0.7 | 75 | < 50 | – | – | CCCc1cc(N)c2cc(NC(=O)c3ccc(-c4ccc(Cl)cc4)cc3)ccc2n1
61 | 0.3 | 44 | < 50 | – | – | CCC(C)c1cc(N)c2cc(NC(=O)/C=C/c3ccc(C(F)(F)F)cc3)ccc2n1 (stereo not drawn)
62 | 0.3 | 29 | < 50 | – | – | CC(C)(C)c1cc(N)c2cc(NC(=O)/C=C/c3ccc(C(F)(F)F)cc3)ccc2n1
